Source: PMC5175178, “Development of an in-vivo active reversible butyrylcholinesterase inhibitor” (Scientific Reports, 2016)

Assays:
[1] = biological target: T1, huBChE (Homo sapiens, UniProt P06276); experiment: Kinetic studies for huBChE inhibition, stopped-flow progress curves; assay type: biochemical; conditions: hydrolysis by huBChE, pH 8
T1 construct: made in house
Protocol: This situation is referred to as tight binding inhibition. […] Of note, a high enzyme concentration was used in order to investigate the time-dependent inhibition and to reach the plateau of the reaction, which allowed precise quantification of the substrate concentration. […] The curves were analyzed simultaneously using the ENZO application[36].
Briefly, the time-course of yellow color formation was followed on a Bio-logic SFM-2000 stopped flow apparatus at 25 °C. […] The buffer solutions were injected into a mixing chamber using syringes. […] The progress curves obtained were analyzed simultaneously, using the ENZO application[36], which can derive and numerically solve a system of differential equations, and fit their coefficients. Several reaction mechanisms were tested.

[2] = system: ABCB1; experiment: Caco-2 monolayer bidirectional permeability assay; conditions: human; for Papp A→B at 120 min: Caco-2, apical-to-basolateral apparent permeability coefficient; for Papp B→A at 120 min: Caco-2, basolateral-to-apical apparent permeability coefficient
Protocol: (§1) They were grown on Transwell® culture inserts with a polycarbonate membrane (diameter, 12 mm; pore size, 0.4 µm). 50,000 cells/filter membranes were used for seeding and the medium was changed every two days. At day 18, transepithelial electrical resistance (TEER) was measured for each filter with Caco-2 cell monolayers. […] The samples were acidified by dilution with the same volume of 0.01M HCl before fluorescence measurements.
(§2) Ringer buffer with 10 mM d-glucose or 10 mM mannitol on apical and basolateral side of the tissue, respectively, was used as an incubation saline. […] The stock solutions were added either to the apical or to the basolateral compartment to obtain bidirectional permeability measurements. Six samples were withdrawn in 20 min intervals. Each time 300 µl was taken from the 1500 µL basolateral acceptor compartment and 100 µL from the 500 µL apical acceptor compartment. These volumes were immediately replaced by the appropriate fresh incubation saline. […] All apparent permeability coefficients were calculated as described previously^24.

[3] = system: Caco-2 cells; experiment: Caco-2 monolayer bidirectional permeability assay; conditions: ABCB1 marker substrate, no inhibitor
Protocol: as §1, §2

T1 sequence (P06276 29-602): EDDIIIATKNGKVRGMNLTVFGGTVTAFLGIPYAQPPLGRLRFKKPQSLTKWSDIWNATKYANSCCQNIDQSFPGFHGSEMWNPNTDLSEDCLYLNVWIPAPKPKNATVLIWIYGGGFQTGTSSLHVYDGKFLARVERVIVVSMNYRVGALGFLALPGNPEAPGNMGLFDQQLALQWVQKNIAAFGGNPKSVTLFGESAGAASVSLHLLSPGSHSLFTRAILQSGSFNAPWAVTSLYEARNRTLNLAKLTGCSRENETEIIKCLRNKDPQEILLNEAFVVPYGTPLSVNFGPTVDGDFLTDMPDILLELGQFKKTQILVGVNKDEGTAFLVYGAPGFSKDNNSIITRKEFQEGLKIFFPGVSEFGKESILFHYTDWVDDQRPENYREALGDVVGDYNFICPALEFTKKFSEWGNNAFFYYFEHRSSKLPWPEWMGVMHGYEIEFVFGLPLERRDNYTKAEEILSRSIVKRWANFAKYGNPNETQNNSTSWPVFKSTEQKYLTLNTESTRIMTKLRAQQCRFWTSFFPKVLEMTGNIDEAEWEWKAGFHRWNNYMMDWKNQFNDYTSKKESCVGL

CCCC(=O)SCC[N+](C)(C)C.[I-] [BTCI, butyrylthiocholine iodide]
kcat (s^-1) ± SD [1]: 852 ± 8 s⁻¹ | Km ([1]; read-out: Km (µM) ± SD): 38.5 ± 0.3 µM

COC(=O)c1ccccc1-c1c2ccc(=N)cc-2oc2cc(N)ccc12 [Rhodamine123]
efflux ratio at 120 min ([2]; Caco-2): 2.5 | Papp A→B at 120 min ([2]; after inhibition with PSC833): 1 ×10⁻⁶ cm/s | Papp A→B at 120 min ([2]; no inhibitor): 1.1 ×10⁻⁶ cm/s | Papp B→A at 120 min ([2]; after inhibition with PSC833): 2.5 ×10⁻⁶ cm/s | Papp B→A at 120 min ([2]; no inhibitor): 7.7 ×10⁻⁶ cm/s | efflux ratio [3]: 7.3
